According to patent US10675286B2, “Heterocyclic compounds and uses thereof” (Infinity Pharmaceuticals, Inc., priority 2014, dated 2020):
“Also recorded” adds a separate entry of the source.

How the values were obtained:
[1] = system: T cell proliferation suppressed by CT26 tumor cells; assay: Ex vivo T cell proliferation (CFSE) with cells of CT26 tumors; assay type: cell-based, mouse; settings: vs tumor cells from vehicle treated mice
Experimental: CT26 was an N-nitroso-N-methylurethane-(NNMU)induced, undifferentiated colon carcinoma cell line. It was cloned to generate the cell line designated CT26.WT (ATCC CRL-2638).
The duration of the study was 1 week under treatment. 5-6 week old female, Balb/c mice (Jackson Labs) implanted subcutaneously with 5×10^5CT26 cells in 100 μl PBS. CT26 cells were cultured in RPMI supplemented with 10% FBS. Dosing commenced when tumors reached an average volume of 500-600 mm^3.
For group 3 (αPD-L1), the mice were dosed once, IP, 200 ug (200 uL from 1 mg/ml stock).
Mice were monitored daily for adverse clinical effects. Body weights and tumor luminescent were measured two times per week. At the end of the study, tumors were harvested and cut into 3 parts; one piece for CTL killing assay, one piece for CSFE proliferation assay and one piece (split into two) for OCT/FFPE.
Spleens from 3 vehicle treated tumor bearing mice were physically dissociated in T cell media and passed through a 70 micron filter. After red cell lysis, the cells were pooled, brought up in PBS and stained with CFSE (invitrogen). After washing, these cells were brought up in 20 ml T cell media. Half the cells received Dynal mouse activator beads (CD3/CD28 crosslinking at a 1:1 concentration). CD3/CD28 beads induce proliferation in splenocytes from tumor bearing mouse (data not shown). […]

[2] = system: CXCL12-induced pAKT in T-cells; assay: CXCL12-induced pAKT in T-cells of CLL patient PBMCs; assay type: cell-based, human
Description: There was a tight correlation between the EC50s observed in the CXCL12-induced pAKT assay and the T-cell migration assay.

[3] = Oral pharmacokinetics of Compound BB in monkey; assay type: in vivo; settings: 5 mg/kg oral
Description: (§1) Compound BB's oral exposure is high in rat, dog and monkey. Good oral bioavailability and low clearance in rodent and non-rodent animal species results in high oral exposure.

[4] = system: differentiation of myeloid cells into M2 TAMs; assay: Murine M2 TAM differentiation (ARG1 levels); assay type: cell-based, mouse
Description: High ARG1 (Arginase-1) levels indicate that myeloid cells are differentiating into M2 macrophages, so lower ARG1 levels relative to a control indicate interference with differentiation into M2 macrophages. Expression of Arginase-1 depletes the tumor microenvironment of arginine, thereby promoting T cell death and NK cell inhibition. Schmid et. al., Proceedings: AACR 103rd Annual Meeting 2012, Cancer Research: Apr. 15, 2012; Volume 72, Issue 8, Supplement 1. […] M2 TAMs promote cancer cell survival (FIG. 23).

LLC tumor brei [5] = assay: LLC tumor brei model, immune cells in tumors; assay type: in vivo
[6] = system: collagen induced arthritis; assay: Rat collagen induced arthritis (CIA) model
[7] = system: T cell activation (IFN-γ in response to ConA); assay: T cell activation in human whole blood (Con-A, IFN-γ readout); assay type: cell-based; settings: 24 hours, read-out: IC50, T cell activation as measured by inhibition of IFN-γ
Experimental: The purpose of this study is to evaluate the effect of various antigens (Con-A) in T cell activation in Human Whole Blood vs. 1:1 Diluted Blood using test compounds at 24 hour time-point.
T-cell Activation Media includes RPMI-1000 ml, MEM NEAA-10 ml, Sodium Pyruvate (100 mM)-10 ml, Pen Strep-10 ml, 2-Mercaptoethanol-1 ml, and FBS-100 ml. 100 ul of whole blood were plated in 96 well plate. Used only the 60 inside wells and filled the outside with media or PBS. Diluted human whole blood with 5% Serum RPMI 1640 1:1 and plate 100 ul in 96 well plate. Used only the 60 inside wells and filled the outside with media or PBS.
The compound was diluted using DMSO (Sigma hybridmax). For 1000 nM highest concentration starting from a 10 mM stock, added 300 ul of DMSO into deep well plates. To the highest concentration add 10 ul of 10 mM compound stock.
A media plate was prepared from DMSO plate by taking 100 ul and go into 900 ul media in new deep well plate, taping plate, and putting on mixer for 5 minutes.
The rested cell plates were removed from incubator. Added 12 uL of diluted compound from media plate (final DMSO is 1%), and incubated for 45 minutes.
Con-A was prepared as follows: 200 ul stock into 1 ml Media, 100 ul of that into 1 ml Media, 100 ul of that into 1 ml Media. […] This was analyzed after 24 Hours.
10× stock in media, added 12 ul per well. […] Analyzed with multiplex elisa from MSD. […]

LLC tumor brei [8] = assay: LLC tumor brei model, Compound BB with or without cyclophosphamide; assay type: in vivo, mouse
Experimental: In this experiment, treatment began when tumors reached approx. 150 mm^3—around day 12. Caliper and xenogen images were monitored. Treatment groups n=13-15/group. […] Samples for FACs analysis were collected on day 23 post implant. Using FACS, cells were assayed for the level of CD11b and Gr-1.

[9] = Oral pharmacokinetics of Compound BB in rat; assay type: in vivo; settings: 7.5 mg/kg oral
Description: as §1

MC38 tumor cells = assay: MC38 colon cancer model; assay type: in vivo, mouse
Experimental: In this model, a syngeneic colon cancer cell line is run subcutaneously. The experimental setup was as follows.
The cell injection volume was 0.05 ml per mouse. When tumors reached an average size of 80-100 mm^3, a pair match was made and treatment began. The tumor was measured by caliper biweekly.
The dosing volume was 5 mL/kg.
For all animals, blood was collected by terminal cardiac puncture under isoflurane anesthesia. The blood was processed for plasma. In addition, tumor samples were collected.
At study end, tumors were isolated, fixed in 10% neutral buffered formalin and embedded in paraffin for histologic analysis. […] T-cells within the tumor sections were identified utilizing a CD3-specific antibody via automated immunohistochemistry equipment (Ventana). Once stained, slides were digitalized via Aperio slide scanning equipment. Next, stained tumor sections were quantified via Definians software to assess the percentage of CD3 positive cells within each tumor.

P-GP (P-glycoprotein 1) = P-GP (P-glycoprotein 1) (Homo sapiens (Human), UniProt P08183); assay: P-gp inhibition; assay type: in vitro ADME
Farage cell line = assay: Combination isobologram in Farage cell line; assay type: cell-based; settings: combination of Compound AA and Compound BB

P-GP (P-glycoprotein 1), sequence (P08183 whole entry, species assumed): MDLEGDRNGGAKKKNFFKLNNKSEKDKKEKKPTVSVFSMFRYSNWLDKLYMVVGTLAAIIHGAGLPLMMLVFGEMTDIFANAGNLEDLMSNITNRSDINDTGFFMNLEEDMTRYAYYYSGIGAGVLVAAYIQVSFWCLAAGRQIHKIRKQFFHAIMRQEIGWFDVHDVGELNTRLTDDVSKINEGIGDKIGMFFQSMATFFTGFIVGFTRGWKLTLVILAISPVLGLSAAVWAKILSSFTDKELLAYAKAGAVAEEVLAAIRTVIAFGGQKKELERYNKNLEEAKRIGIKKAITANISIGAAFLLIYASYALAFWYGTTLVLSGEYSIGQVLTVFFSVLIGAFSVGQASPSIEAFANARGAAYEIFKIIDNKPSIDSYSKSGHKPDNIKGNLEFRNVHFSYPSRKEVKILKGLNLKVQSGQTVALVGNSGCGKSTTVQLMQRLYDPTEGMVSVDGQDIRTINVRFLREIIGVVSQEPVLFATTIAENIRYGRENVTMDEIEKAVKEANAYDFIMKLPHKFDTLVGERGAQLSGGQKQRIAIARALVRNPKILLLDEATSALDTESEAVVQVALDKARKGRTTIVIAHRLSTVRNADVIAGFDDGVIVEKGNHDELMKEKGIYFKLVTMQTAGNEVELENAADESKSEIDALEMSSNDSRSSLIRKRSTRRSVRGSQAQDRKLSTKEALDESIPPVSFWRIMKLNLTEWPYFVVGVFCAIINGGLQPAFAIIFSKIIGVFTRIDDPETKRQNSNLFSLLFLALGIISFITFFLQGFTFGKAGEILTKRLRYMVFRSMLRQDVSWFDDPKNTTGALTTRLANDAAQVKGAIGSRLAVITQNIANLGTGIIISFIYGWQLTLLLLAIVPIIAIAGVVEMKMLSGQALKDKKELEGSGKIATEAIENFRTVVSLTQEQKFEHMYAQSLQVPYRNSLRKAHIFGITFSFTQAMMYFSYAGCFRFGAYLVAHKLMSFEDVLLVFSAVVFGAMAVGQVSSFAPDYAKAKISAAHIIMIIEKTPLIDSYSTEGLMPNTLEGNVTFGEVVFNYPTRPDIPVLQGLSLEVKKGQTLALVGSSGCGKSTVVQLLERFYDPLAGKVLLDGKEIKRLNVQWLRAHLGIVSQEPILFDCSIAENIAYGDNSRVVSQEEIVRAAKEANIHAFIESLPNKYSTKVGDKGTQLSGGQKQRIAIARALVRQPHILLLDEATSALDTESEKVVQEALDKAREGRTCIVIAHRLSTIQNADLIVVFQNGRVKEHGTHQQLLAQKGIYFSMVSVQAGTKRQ

## C[C@H](NC(=O)c1c(N)nn2cccnc12)c1cc2cccc(C#Cc3cnn(C)c3)c2c(=O)n1-c1ccccc1 [Compound BB]
[1]
  Inhibition of spleen T cell proliferation by tumor cells of treated mice (FIGS. 55, 56): less inhibitory of spleen T cell proliferation; also recorded: can release the suppression
[2]
  Inhibition of CXCL12-induced pAKT in T-cells (FIG. 9): more strongly than a PI3K-δ inhibitor
[3]
  Oral exposure (plasma concentrations within 24 hours, FIG. 43): high
[4]
  Differentiation of myeloid cells into M2 TAMs (ARG1 levels, FIG. 22): inhibited M2 TAM differentiation much more effectively than PI3K-δ inhibitor
LLC tumor brei [5]
  CD206+ M2 polarized suppressive macrophages: reduces
  TAMs in tumor: decreased
[6]; Rattus norvegicus
  ED50: 2.13 mg/kg
[6]; rat CIA, day 9 to day 17
  Mean ankle diameter (FIG. 1): has therapeutic effects
[7]
  IC50: 2500 nM
LLC tumor brei [8]; Compound BB 15 mg/kg QD PO, cyclophosphamide 50 mg/kg EOD IP
  Tumor growth (FIG. 48): reduced tumor growth by about the same amount
LLC tumor brei [8]; Compound BB alone or with cyclophosphamide
  CD206 population in tumor (FACS, FIG. 52): decrease in the CD206 population
[9]
  Oral exposure (plasma concentrations within 24 hours, FIG. 43): high
MC38 tumor cells; MC38, monotherapy
  Tumor growth (FIG. 29A): significantly inhibited tumor growth
MC38 tumor cells; MC38 tumors, vs vehicle
  Intratumoral CD3+ T cells (FIG. 30): significantly more intratumoral CD3+ T cells
P-GP (P-glycoprotein 1)
  P-GP (P-glycoprotein 1) inhibition: appears to be an inhibitor of P-GP
Farage cell line
  effect of the combination (isobologram): synergistic effect
